For one test, the target named is T1, CDK9/Cyclin T1 (Homo sapiens, UniProt P50750).
T1 construct: made in house; host or cells: HEK293 cells, recombinant adenovirus
The test can be described thus: Kinase assay using CDK9/Cyclin T1. It is filed as biochemical. The settings on record: read-out: CDK9 (activity range). The text has this: Cloning of CDK9 and Cyclin T1:
Both cDNA fragments were cloned by PCR into pDONR201 vectors using the gateway recombination system (Invitrogen) according to the manufacturer's recommendations. The fragments were subcloned into a gateway-adapted shuttle vector (pPM7) for production of recombinant adenovirus. All plasmids were verified by restriction digests and sequencing analysis.
Expression and Purification of CDK9/Cyclin T1 Proteins:
Expression and purification was in principle performed as described by Cotten et al. (M. Cotten et al., Nucleic acids research, 2003, 31(28), 128).
Kinase Assay Using CDK9/Cyclin T1:
Kinase assays were performed in principle as described by Cotten et al. (M. Cotten et al., Nucleic acids research, 2003, 31(28), 128).

In another test the target is T2, CDK2/CyclinA (Homo sapiens, UniProt P24941).
T2 construct: purchased Proqinase
The test can be described thus: Kinase assay determining CDK2/CyclinA activity. In kind it is biochemical. The settings on record: read-out: CDK2 (activity range). The protocol: Kinase Assays Determining CDK2/CyclinA and CDK5/p35 Activity:
Kinase assays were performed as described by the manufacturers recommendations (Proqinase for CDK2/CyclinA and Upsate for CDK5/p35).

T1 sequence (P50750 whole entry): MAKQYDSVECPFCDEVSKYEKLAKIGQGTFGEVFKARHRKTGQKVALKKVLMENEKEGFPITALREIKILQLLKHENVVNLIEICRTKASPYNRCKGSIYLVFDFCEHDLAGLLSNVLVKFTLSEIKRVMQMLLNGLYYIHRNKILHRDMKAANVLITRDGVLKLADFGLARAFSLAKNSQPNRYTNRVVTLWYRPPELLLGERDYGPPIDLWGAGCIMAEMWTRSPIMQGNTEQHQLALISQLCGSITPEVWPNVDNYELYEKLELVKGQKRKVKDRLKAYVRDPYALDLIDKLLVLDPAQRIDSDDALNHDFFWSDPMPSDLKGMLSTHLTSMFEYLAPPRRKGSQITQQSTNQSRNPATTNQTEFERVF
T1 sequence (O60563 whole entry partner): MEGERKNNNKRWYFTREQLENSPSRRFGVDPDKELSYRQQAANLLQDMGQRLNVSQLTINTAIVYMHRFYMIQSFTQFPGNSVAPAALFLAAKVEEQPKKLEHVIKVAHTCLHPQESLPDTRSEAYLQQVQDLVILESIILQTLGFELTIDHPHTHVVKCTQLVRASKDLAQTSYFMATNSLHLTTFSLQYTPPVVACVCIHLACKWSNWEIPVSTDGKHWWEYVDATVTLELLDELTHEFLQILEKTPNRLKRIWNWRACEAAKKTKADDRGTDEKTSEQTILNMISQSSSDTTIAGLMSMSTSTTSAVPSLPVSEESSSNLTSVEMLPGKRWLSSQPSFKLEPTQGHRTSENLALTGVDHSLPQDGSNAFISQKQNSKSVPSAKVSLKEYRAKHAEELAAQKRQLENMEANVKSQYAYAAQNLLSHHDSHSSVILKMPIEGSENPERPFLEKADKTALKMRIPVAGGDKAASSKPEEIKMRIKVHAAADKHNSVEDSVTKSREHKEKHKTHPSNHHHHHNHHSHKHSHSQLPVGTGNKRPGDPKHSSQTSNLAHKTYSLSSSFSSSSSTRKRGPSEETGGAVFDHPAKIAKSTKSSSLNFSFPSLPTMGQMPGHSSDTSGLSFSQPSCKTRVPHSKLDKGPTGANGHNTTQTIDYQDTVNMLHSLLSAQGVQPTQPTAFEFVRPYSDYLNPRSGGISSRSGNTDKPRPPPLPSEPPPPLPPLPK

On to `COc1ccccc1-c1ncnc(Nc2ccc(N)cc2)c1C` [(152)], for which the IC50 on CDK9/Cyclin T1 and at CDK2/CyclinA was 10000 to 250000 nM throughout.
Take `COc1ccccc1-c1cc(NCCc2ccncc2)ncn1` [(93)]: the IC50 lay in the range of 1000 to 10000 nM at CDK9/Cyclin T1 and 10000 to 250000 nM at CDK2/CyclinA.
In the same order, the values of `COc1ccccc1-c1cc(Nc2ccc(N)cc2C)ncn1` [(123)] are 1000 to 10000 nM and 1000 to 10000 nM.
In the same order, the values of `Nc1ccc(C(=O)Nc2ccc(Nc3cc(-c4ccccc4OCc4ccccc4)ncn3)cc2)cc1` [(4)] are 1 to 1000 nM and 1000 to 10000 nM.
`COc1ccccc1-c1cc(Nc2ccc(NC(=O)NC3CCCCC3)cc2)ncn1` [(38)]: the IC50 on CDK9/Cyclin T1 lay in the range of 1 to 1000 nM; at CDK2/CyclinA, 1000 to 10000 nM.
In the same order, the values of `COc1ccccc1-c1cc(Nc2ccc(NC(=O)C(N)c3ccc4ccccc4c3)cc2)ncn1` (centres unmarked) [(146)] are 1 to 1000 nM and 1000 to 10000 nM.
In the same order, the values of `CCCS(=O)(=O)Nc1ccc(Nc2cc(-c3ccccc3OC)ncn2)cc1` [(154)] are 1 to 1000 nM and 1 to 1000 nM.
`COc1ccccc1-c1cc(Nc2ccc(NS(=O)(=O)C(C)C)cc2)ncn1` [(153)]: the IC50 at CDK9/Cyclin T1 and at CDK2/CyclinA was 1 to 1000 nM throughout.
Turning to `CC(C)(C)C(=O)Nc1ccc(Nc2cc(NCCCO)ncn2)cc1` [(80)], the IC50 at CDK9/Cyclin T1 and at CDK2/CyclinA was 10000 to 250000 nM throughout.
Turning to `Nc1ccc(C(=O)Nc2ccc(Nc3cc(-c4ccccc4O)ncn3)cc2)cc1` [(151)], the IC50 on CDK9/Cyclin T1 and on CDK2/CyclinA was 10000 to 250000 nM in each case.
Regarding `CC(C)Oc1ccccc1-c1cc(Nc2ccc(NC(=O)c3ccc(N)cc3)cc2)ncn1` [(58)], the IC50 on CDK9/Cyclin T1 and at CDK2/CyclinA was 1 to 1000 nM each time.
On to `Cc1ccc(S(=O)(=O)Nc2ccc(Nc3cc(-c4cccc(/C=C/C(=O)O)c4)ncn3)cc2)cc1` [(40)], for which the IC50 on CDK9/Cyclin T1 and on CDK2/CyclinA was 10000 to 250000 nM throughout.
`COc1ccccc1-c1cc(Nc2cccc(S(C)(=O)=O)c2)ncn1` [(185)]: the IC50 on CDK9/Cyclin T1 and on CDK2/CyclinA was 1 to 1000 nM each time.
As for `Cc1ccc(Nc2cc(-c3cccc(N)c3)ncn2)cc1NS(C)(=O)=O` [(12)], the IC50 at CDK9/Cyclin T1 and at CDK2/CyclinA was 1 to 1000 nM each time.
Regarding `Cc1ccc(Nc2cc(-c3cccc(N)c3)ncn2)cc1NS(=O)(=O)c1ccccc1` [(109)], the IC50 on CDK9/Cyclin T1 lay within 1 to 1000 nM; at CDK2/CyclinA it was 1000 to 10000 nM.
In the same order, the values of `Nc1cccc(-c2cc(Nc3cccc(S(N)(=O)=O)c3)ncn2)c1` [(214)] are 1 to 1000 nM and 1000 to 10000 nM.
In the case of `COc1ccccc1-c1cc(Nc2ccc(NS(=O)(=O)c3ccc(-c4ccccc4)cc3)cc2)ncn1` [(34)], the IC50 on CDK9/Cyclin T1 and at CDK2/CyclinA was 1000 to 10000 nM in each case.
Take `COc1ccccc1-c1cc(Nc2ccc(NC(=O)c3cn(C)cn3)cc2)ncn1` [(70)]: the IC50 lay within 1 to 1000 nM at CDK9/Cyclin T1 and 1000 to 10000 nM at CDK2/CyclinA.
For `Cc1ccc(Nc2cc(-c3ccccc3O)ncn2)cc1NS(C)(=O)=O` [(181)], in that order: 1 to 1000 nM and 1 to 1000 nM.
In the same order, the values of `COc1ccc(OC)c(-c2cc(Nc3ccc(NC(=O)c4ccc(N)cc4)cc3)ncn2)c1` [(57)] are 10000 to 250000 nM and 10000 to 250000 nM.
For `Cc1ccc(Nc2cc(-c3cccc(N(C)C)c3)ncn2)cc1NS(C)(=O)=O` [(157)], in that order: 1 to 1000 nM and 1000 to 10000 nM.
In the case of `Cc1ccc(S(=O)(=O)Nc2ccc(Nc3cc(Cl)ncn3)cc2)cc1` [(24)], the IC50 lay in the range of 10000 to 250000 nM at CDK9/Cyclin T1 and 1000 to 10000 nM at CDK2/CyclinA.
Turning to `COc1ccccc1-c1cc(Nc2ccc(C(=O)Nc3ccc(N4CCOCC4)cc3)cc2)ncn1` [(125)], the IC50 fell in the range of 1 to 1000 nM at CDK9/Cyclin T1 and 1000 to 10000 nM at CDK2/CyclinA.
Turning to `O=C(Nc1ccc(Nc2cc(-c3ccccc3OCc3ccccc3)ncn2)cc1)[C@@H]1CCCCN1` [(164)], the IC50 at CDK9/Cyclin T1 and on CDK2/CyclinA was 1 to 1000 nM in each case.
As to `COc1cccc(-c2cc(Nc3ccc(NC(=O)c4ccc(N)cc4)cc3)ncn2)c1OC` [(56)], the IC50 on CDK9/Cyclin T1 and at CDK2/CyclinA was 1000 to 10000 nM each time.
As for `COc1ccccc1-c1cc(Nc2ccc(NC(=O)C3CC4CCC3C4)cc2)ncn1` (centres unmarked) [(36)], the IC50 is 1 to 1000 nM at CDK9/Cyclin T1 and 10000 to 250000 nM at CDK2/CyclinA.
For `COc1ccccc1-c1cc(Nc2ccc(C(=O)NC3CCCCC3N)cc2)ncn1` (centres unmarked) [(148)], in that order: 1 to 1000 nM and 1000 to 10000 nM.
In the same order, the values of `COc1ccc(-c2cc(Nc3ccc(NC(=O)c4ccc(N)cc4)cc3)ncn2)cc1` [(6)] are 1 to 1000 nM and 1000 to 10000 nM.
On to `O=C(Nc1ccc(Nc2cc(-c3ccccc3Cl)ncn2)cc1)[C@@H]1CCCCN1` [(192)], for which the IC50 fell in the range of 1 to 1000 nM at CDK9/Cyclin T1 and 10000 to 250000 nM on CDK2/CyclinA.
As to `Nc1ccc(C(=O)Nc2ccc(Nc3cc(-c4ccc(O)cc4)ncn3)cc2)cc1` [(16)], the IC50 on CDK9/Cyclin T1 and at CDK2/CyclinA was 1000 to 10000 nM in each case.
`COc1ccccc1-c1cc(Nc2ccc(NS(=O)(=O)c3ccc(C)cc3)cc2)ncn1` [(5)]: the IC50 on CDK9/Cyclin T1 and on CDK2/CyclinA was 1 to 1000 nM each time.
As for `COc1ccccc1-c1cc(Nc2ccc(NC(=O)NCc3ccc(C)cc3)cc2)ncn1` [(112)], the IC50 at CDK9/Cyclin T1 was 1 to 1000 nM; on CDK2/CyclinA, 10000 to 250000 nM.
For `COc1ccccc1-c1cc(Nc2ccc(C(=O)Nc3ccccc3)cc2)ncn1` [(52)], in that order: 1 to 1000 nM and 10000 to 250000 nM.
As to `COc1ccccc1-c1cc(Nc2ccc(C(=O)NC3CCCCC3)cc2)ncn1` [(44)], the IC50 on CDK9/Cyclin T1 was 1 to 1000 nM; at CDK2/CyclinA it was 1000 to 10000 nM.
For `COc1ccccc1-c1cc(Nc2ccc(NC(=O)CC(C)(C)C)cc2)ncn1` [(42)], the IC50 on CDK9/Cyclin T1 and on CDK2/CyclinA was 1000 to 10000 nM each time.
For `COc1ccccc1-c1cc(Nc2ccc(NC(=O)Cc3ccccc3)cc2)ncn1` [(71)], the IC50 lay in the range of 1 to 1000 nM at CDK9/Cyclin T1 and 1000 to 10000 nM on CDK2/CyclinA.
For `Cc1ccc(Nc2cc(-c3cccc(N)c3)ncn2)cc1NS(=O)(=O)c1cn(C)cn1` [(144)], in that order: 1 to 1000 nM and 1 to 1000 nM.
For `COc1cccc(OC)c1-c1cc(Nc2ccc(NC(=O)c3ccc(N)cc3)cc2)ncn1` [(51)], in that order: 1000 to 10000 nM and 10000 to 250000 nM.
For `COc1ccccc1-c1cc(Nc2ccc(C(=O)NC(C)(C)C)cc2)ncn1` [(54)], the IC50 at CDK9/Cyclin T1 and on CDK2/CyclinA was 1000 to 10000 nM throughout.
Take `COc1ccccc1-c1cc(Nc2ccc(C)c(NS(C)(=O)=O)c2)ncn1` [(162)]: the IC50 at CDK9/Cyclin T1 and on CDK2/CyclinA was 1 to 1000 nM in each case.
In the case of `COc1ccccc1-c1cc(Nc2ccc(NC(=O)c3ccc4c(c3)OCO4)cc2)ncn1` [(130)], the results for the IC50 on CDK9/Cyclin T1 and on CDK2/CyclinA were 1 to 1000 nM and 1000 to 10000 nM, respectively.
For `COc1ccccc1-c1cc(Nc2ccc(NC(=O)c3ccccc3N)cc2)ncn1` [(20)], in that order: 1 to 1000 nM and 1000 to 10000 nM.
For `CC(C)(C)C(=O)Nc1ccc(Nc2cc(-c3ccccc3C(F)(F)F)ncn2)cc1` [(114)], in that order: 10000 to 250000 nM and 10000 to 250000 nM.
As to `CCCN(c1ccc(Nc2cc(-c3ccccc3OC)ncn2)cc1)S(=O)(=O)c1ccc(C)cc1` [(18)], the IC50 was in the range of 1000 to 10000 nM at CDK9/Cyclin T1 and 10000 to 250000 nM at CDK2/CyclinA.
For `Cc1ccc(Nc2cc(-c3cccc(C#N)c3)ncn2)cc1NS(C)(=O)=O` [(163)], in that order: 1000 to 10000 nM and 1000 to 10000 nM.
Turning to `COc1ccccc1-c1cc(N(C)c2ccc(NS(=O)(=O)c3ccc(C)cc3)cc2)ncn1` [(96)], the IC50 on CDK9/Cyclin T1 and on CDK2/CyclinA was 1000 to 10000 nM in each case.
